Read-outs that look alike come from different tables or passages of the source.

The target in data set [1] is GLP-1R (Homo sapiens, UniProt P43220). Put plainly: GLP-1R activation: cAMP increase in CHO cells stably expressing GLP-1R. The format is cell-based. The following applies: read-out: EC50.
Data set [2] in a line: Microsomal stability, human liver microsomes (predicted hepatic clearance). The following applies: predicted from in vitro microsomal stability data.
Setting [3] is: cAMP increase, CHO cells stably expressing GLP-1R, 10 point dose response, 30 minutes incubation.

Sequence of GLP-1R (P43220 24-463): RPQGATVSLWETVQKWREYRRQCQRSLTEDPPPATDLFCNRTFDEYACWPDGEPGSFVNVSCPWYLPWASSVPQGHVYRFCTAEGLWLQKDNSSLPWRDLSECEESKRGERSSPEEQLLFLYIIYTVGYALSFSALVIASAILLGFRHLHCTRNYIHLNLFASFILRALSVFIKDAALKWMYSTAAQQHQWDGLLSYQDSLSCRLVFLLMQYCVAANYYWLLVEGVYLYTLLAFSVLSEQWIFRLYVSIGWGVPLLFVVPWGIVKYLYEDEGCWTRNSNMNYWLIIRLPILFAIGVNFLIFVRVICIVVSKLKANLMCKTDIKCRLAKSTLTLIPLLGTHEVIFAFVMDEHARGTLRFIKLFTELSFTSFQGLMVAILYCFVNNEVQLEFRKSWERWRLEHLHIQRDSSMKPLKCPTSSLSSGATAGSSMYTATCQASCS

For the molecule `N#Cc1ccc(COc2cccc(-c3cc(F)c(Cc4nc5ccc(C(=O)O)cc5n4Cc4nncs4)cc3F)n2)c(F)c1` [Example 576, 1-((1,3,4-thiadiazol-2-yl)methyl)-2-(4-(6-((4-cyano-2-fluorobenzyl)oxy)pyridin-2-yl)-2,5-difluorobenzyl)-1H-benzo[d]imidazole-6-carboxylic acid], the EC50 in data set [1] (setting [3]) stood at 0.86 nM. In addition, in data set [2], the “Predicted Hepatic Clearance (Pred. Cl.)” value is 8 mL/min/kg.
For `N#Cc1ccc(COc2cccc(-c3cc(F)c(Cc4nc5ccc(C(=O)O)cc5n4CC4(n5ccnn5)CC4)cc3F)n2)c(F)c1` [Example 577, 1-((1-(1H-1,2,3-triazol-1-yl)cyclopropyl)methyl)-2-(4-(6-((4-cyano-2-fluorobenzyl)oxy)pyridin-2-yl)-2,5-difluorobenzyl)-1H-benzo[d]imidazole-6-carboxylic acid], in that order: 0.4 nM and 7.5 mL/min/kg.
For the molecule `Cn1ncnc1Cn1c(Cc2cc(F)c(-c3cccc(OCc4ccc(C#N)cc4F)n3)cc2F)nc2ccc(C(=O)O)cc21` [Example 578, 2-(4-(6-((4-cyano-2-fluorobenzyl)oxy)pyridin-2-yl)-2,5-difluorobenzyl)-1-((1-methyl-1H-1,2,4-triazol-5-yl)methyl)-1H-benzo[d]imidazole-6-carboxylic acid], in data set [1] (setting [3]), the EC50 was determined as 13.8 nM. Moreover, in data set [2], the “Predicted Hepatic Clearance (Pred. Cl.)” value was 4.67 mL/min/kg.
In the case of `N#Cc1ccc(COc2cccc(-c3cc(F)c(Cc4nc5ccc(C(=O)O)cc5n4Cc4ccns4)cc3F)n2)c(F)c1` [Example 579, 2-(4-(6-((4-cyano-2-fluorobenzyl)oxy)pyridin-2-yl)-2,5-difluorobenzyl)-1-(isothiazol-5-ylmethyl)-1H-benzo[d]imidazole-6-carboxylic acid], in data set [1] (setting [3]), the EC50 came to 0.35 nM. Further, the “Predicted Hepatic Clearance (Pred. Cl.)” value in data set [2] is 16 mL/min/kg.
For `N#Cc1ccc(COc2cccc(-c3cc(F)c(Cc4nc5ccc(C(=O)O)cc5n4Cc4ccsn4)cc3F)n2)c(F)c1` [Example 580, 2-(4-(6-((4-cyano-2-fluorobenzyl)oxy)pyridin-2-yl)-2,5-difluorobenzyl)-1-(isothiazol-3-ylmethyl)-1H-benzo[d]imidazole-6-carboxylic acid], in that order: 1.94 nM and 5.83 mL/min/kg.
As to `CC1(Cn2c(Cc3cc(F)c(-c4cccc(OCc5ccc(C#N)cc5F)n4)cc3F)nc3ccc(C(=O)O)cc32)COC1` [Example 581, 2-(4-(6-((4-cyano-2-fluorobenzyl)oxy)pyridin-2-yl)-2,5-difluorobenzyl)-1-((3-methyloxetan-3-yl)methyl)-1H-benzo[d]imidazole-6-carboxylic acid], the concentration giving a half-maximal response (EC50) in data set [1] (setting [3]) is 0.4 nM. For the same molecule, the “Predicted Hepatic Clearance (Pred. Cl.)” value in data set [2] is 6.33 mL/min/kg.
For `N#Cc1ccc(COc2cccc(-c3cc(F)c(Cc4nc5ccc(C(=O)O)nc5n4CCOC(F)F)cc3F)n2)c(F)c1` [Example 583, 2-(4-(6-((4-cyano-2-fluorobenzyl)oxy)pyridin-2-yl)-2,5-difluorobenzyl)-3-(2-(difluoromethoxy)ethyl)-3H-imidazo[4,5-b]pyridine-5-carboxylic acid], in data set [1] (setting [3]), the EC50 was 2.39 nM. Besides, the “Predicted Hepatic Clearance (Pred. Cl.)” value in data set [2] is 10.3 mL/min/kg.
Take `N#Cc1ccc(COc2cccc(-c3ccc(Cc4nc5c(F)cc(C(=O)O)cc5n4Cc4ccon4)c(F)c3)n2)c(F)c1` [Example 585, 2-(4-(6-((4-cyano-2-fluorobenzyl)oxy)pyridin-2-yl)-2-fluorobenzyl)-4-fluoro-1-(isoxazol-3-ylmethyl)-1H-benzo[d]imidazole-6-carboxylic acid]: the EC50 in data set [1] (setting [3]) was determined as 0.81 nM. The “Predicted Hepatic Clearance (Pred. Cl.)” value in data set [2] was 2.33 mL/min/kg.
For `COC(C)(C)Cn1c(Cc2cc(F)c(-c3cccc(OCc4ccc(C#N)cc4F)n3)cc2F)nc2ccc(C(=O)O)cc21` [Example 586, 2-(4-(6-((4-cyano-2-fluorobenzyl)oxy)pyridin-2-yl)-2,5-difluorobenzyl)-1-(2-methoxy-2-methylpropyl)-1H-benzo[d]imidazole-6-carboxylic acid], in that order: 0.54 nM and 7.67 mL/min/kg.
Regarding `CO[C@@H](C)Cn1c(Cc2cc(F)c(-c3cccc(OCc4ccc(C#N)cc4F)n3)cc2F)nc2ccc(C(=O)O)cc21` [Example 587, (S)-2-(4-(6-((4-cyano-2-fluorobenzyl)oxy)pyridin-2-yl)-2,5-difluorobenzyl)-1-(2-methoxypropyl)-1H-benzo[d]imidazole-6-carboxylic acid], in data set [1] (setting [3]), the concentration for a half-maximal effect (EC50) amounted to 2.15 nM. Moreover, the “Predicted Hepatic Clearance (Pred. Cl.)” value in data set [2] is 6.83 mL/min/kg.
In the same order, the values of `CO[C@H](C)Cn1c(Cc2cc(F)c(-c3cccc(OCc4ccc(C#N)cc4F)n3)cc2F)nc2ccc(C(=O)O)cc21` [Example 588, (R)-2-(4-(6-((4-cyano-2-fluorobenzyl)oxy)pyridin-2-yl)-2,5-difluorobenzyl)-1-(2-methoxypropyl)-1H-benzo[d]imidazole-6-carboxylic acid] are 1.33 nM and 6.5 mL/min/kg.
`COC(=O)N1CCC[C@@H]1Cn1c(Cc2cc(F)c(-c3cccc(OCc4ccc(C#N)cc4F)n3)cc2F)nc2ccc(C(=O)O)cc21` [Example 589, (R)-2-(4-(6-((4-cyano-2-fluorobenzyl)oxy)pyridin-2-yl)-2,5-difluorobenzyl)-1-((1-(methoxycarbonyl)pyrrolidin-2-yl)methyl)-1H-benzo[d]imidazole-6-carboxylic acid]: the EC50 in data set [1] was determined as 5.46 nM. For the same molecule, the “Predicted Hepatic Clearance (Pred. Cl.)” value in data set [2] was 8.17 mL/min/kg.
In the same order, the values of `CC(=O)N1CCC[C@@H]1Cn1c(Cc2cc(F)c(-c3cccc(OCc4ccc(C#N)cc4F)n3)cc2F)nc2ccc(C(=O)O)cc21` [Example 591, (R)-1-((1-acetylpyrrolidin-2-yl)methyl)-2-(4-(6-((4-cyano-2-fluorobenzyl)oxy)pyridin-2-yl)-2,5-difluorobenzyl)-1H-benzo[d]imidazole-6-carboxylic acid] are 0.17 nM and 7 mL/min/kg.
As for `COCCn1c(Cc2ccc(-c3cccc(OCc4ncc(Cl)s4)n3)cc2F)nc2ccc(C(=O)O)cc21` [Example 592, 2-(4-(6-((5-chlorothiazol-2-yl)methoxy)pyridin-2-yl)-2-fluorobenzyl)-1-(2-methoxyethyl)-1H-benzo[d]imidazole-6-carboxylic acid], the concentration for a half-maximal effect (EC50) in data set [1] (setting [3]) turned out to be 33.3 nM. Also, the “Predicted Hepatic Clearance (Pred. Cl.)” value in data set [2] is 12 mL/min/kg.
`COCCn1c(Cc2ccc(-c3cccc(OCc4cnc(Cl)s4)n3)cc2F)nc2ccc(C(=O)O)cc21` [Example 593, 2-(4-(6-((2-chlorothiazol-5-yl)methoxy)pyridin-2-yl)-2-fluorobenzyl)-1-(2-methoxyethyl)-1H-benzo[d]imidazole-6-carboxylic acid]: the EC50 in data set [1] (setting [3]) worked out at 145 nM. Further, in data set [2], the “Predicted Hepatic Clearance (Pred. Cl.)” value was 8.3 mL/min/kg.
In the same order, the values of `N#Cc1ccc(COc2cccc(-c3cc(F)c(Cc4nc5ccc(C(=O)O)cc5n4Cc4ccon4)c(F)c3)n2)c(F)c1` [Example 594, 2-(4-(6-((4-cyano-2-fluorobenzyl)oxy)pyridin-2-yl)-2,6-difluorobenzyl)-1-(isoxazol-3-ylmethyl)-1H-benzo[d]imidazole-6-carboxylic acid] are 0.77 nM and 4.33 mL/min/kg.
As to `COCCn1c(Cc2ccc(-c3cccc(OCc4cccnc4[N+](=O)[O-])n3)cc2F)nc2ccc(C(=O)O)cc21` [Example 596, 2-(2-fluoro-4-(6-((2-nitropyridin-3-yl)methoxy)pyridin-2-yl)benzyl)-1-(2-methoxyethyl)-1H-benzo[d]imidazole-6-carboxylic acid], in data set [1] (setting [3]), the EC50 was found to be 816 nM. In addition, the “Predicted Hepatic Clearance (Pred. Cl.)” value in data set [2] is 19.5 mL/min/kg.
`N#CCC1(Cn2c(Cc3ccc(-c4ccc(F)c(OCc5ccc(C#N)cc5F)n4)cc3F)nc3c(F)cc(C(N)=O)cc32)CC1` [Example 597, 2-(4-(6-((4-cyano-2-fluorobenzyl)oxy)-5-fluoropyridin-2-yl)-2-fluorobenzyl)-1-((1-(cyanomethyl)cyclopropyl)methyl)-4-fluoro-1H-benzo[d]imidazole-6-carboxamide]: the EC50 in data set [1] (setting [3]) came out at 13.8 nM. Moreover, the “Predicted Hepatic Clearance (Pred. Cl.)” value in data set [2] was 9.83 mL/min/kg.
For `COc1cc(C#N)ccc1COc1cccc(-c2cc(F)c(Cc3nc4ccc(C(N)=O)cc4n3CC3(CC#N)CC3)cc2F)n1` [Example 598, 2-(4-(6-((4-cyano-2-methoxybenzyl)oxy)pyridin-2-yl)-2,5-difluorobenzyl)-1-((1-(cyanomethyl)cyclopropyl)methyl)-1H-benzo[d]imidazole-6-carboxamide], in data set [1] (setting [3]), the EC50 came to 0.28 nM. In addition, the “Predicted Hepatic Clearance (Pred. Cl.)” value in data set [2] is 19.2 mL/min/kg.
Take `N#CCC1(Cn2c(Cc3cc(F)c(-c4ccnc(OCc5ccc(C#N)cc5F)n4)cc3F)nc3ccc(C(N)=O)nc32)CC1` [Example 599, 2-(4-(2-((4-cyano-2-fluorobenzyl)oxy)pyrimidin-4-yl)-2,5-difluorobenzyl)-3-((1-(cyanomethyl)cyclopropyl)methyl)-3H-imidazo[4,5-b]pyridine-5-carboxamide]: the EC50 in data set [1] (setting [3]) was determined as 0.98 nM. In addition, in data set [2], the “Predicted Hepatic Clearance (Pred. Cl.)” value was 12.3 mL/min/kg.
With `N#CCC1(Cn2c(Cc3ccc(-c4cccc(OCc5ccc(C#N)cc5F)n4)cc3F)nc3ccc(C(=O)O)nc32)CC1` [Example 600, 2-(4-(6-((4-cyano-2-fluorobenzyl)oxy)pyridin-2-yl)-2-fluorobenzyl)-3-((1-(cyanomethyl)cyclopropyl)methyl)-3H-imidazo[4,5-b]pyridine-5-carboxylic acid], in data set [1] (setting [3]), the EC50 is 0.1 nM. In data set [2], the “Predicted Hepatic Clearance (Pred. Cl.)” value is 6.7 mL/min/kg.
As for `N#Cc1ccc(COc2cccc(-c3ccc(Cc4nc5ccc(C(=O)O)cc5n4Cc4ncco4)nc3)n2)c(F)c1` [Example 601, 2-((6-((4-cyano-2-fluorobenzyl)oxy)-[2,3′-bipyridin]-6′-yl)methyl)-1-(oxazol-2-ylmethyl)-1H-benzo[d]imidazole-6-carboxylic acid], in data set [1] (setting [3]), the EC50 was determined as 31.7 nM. The “Predicted Hepatic Clearance (Pred. Cl.)” value in data set [2] was 3.83 mL/min/kg.
